How the values were obtained:
[1] = target: Kelch domain of human KEAP1 (321-624 aa) (Homo sapiens (Human), UniProt Q14145); test: KEAP1 KELCH ThermoFluor binding assay; conditions: KEAP Kelch […], 1,8-ANS, pH 7.0, average of results obtained, read-out: Tf Kd;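 further: Ligand-induced melting temperature shift of E. coli-expressed KEAP1 Kelch protein, Kd estimated from concentration-response curves of ΔTm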
[2] = test system: Glo-Response ARE-luc2P HEK293 cell line; test: ARE luciferase reporter cell-based assay; conditions: Homo sapiens, HEK293, 24 h, average of results obtained;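 further: luciferase signal tracks Nrf2 activation of the ARE once compounds disrupt KEAP1-Nrf2 binding, read with One-Glo reagent, DMSO serving as low control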

Chain of Kelch domain of human KEAP1 (321-624 aa) (Q14145 321-624): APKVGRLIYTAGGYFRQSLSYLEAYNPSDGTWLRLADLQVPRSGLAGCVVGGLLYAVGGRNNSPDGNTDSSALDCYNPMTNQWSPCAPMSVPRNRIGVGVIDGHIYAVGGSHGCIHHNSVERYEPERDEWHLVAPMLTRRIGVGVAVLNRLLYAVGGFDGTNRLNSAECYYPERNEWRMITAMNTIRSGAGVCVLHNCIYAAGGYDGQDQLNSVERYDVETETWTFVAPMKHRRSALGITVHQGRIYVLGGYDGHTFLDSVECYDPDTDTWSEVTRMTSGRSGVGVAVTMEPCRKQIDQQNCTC

Compound: Cc1ccc([C@@H](CC(=O)O)c2ccn3c(C(F)F)nnc3c2C)cc1CN1CC2(CC2)Oc2ncccc2S1(=O)=O (single isomer, unassigned) [Example 474, (*R)-3-(3-(Difluoromethyl)-8-methyl-[1,2,4]triazolo[4,3-a]pyridin-7-yl)-3-(3-((1′,1′-dioxidospiro[cyclopropane-1,4′-pyrido[2,3-b][1,4,5]oxathiazepin]-2′(3′H)-yl)methyl)-4-methylphenyl)propanoic Acid]
- Kd [1]: < 1 nM
- EC50 [2]: 1580 nM

Compound: Cc1cnc2c(c1)S(=O)(=O)N(Cc1cc(C(c3ccn4c(C(F)(F)F)nnc4c3C)C(C)(C)C(=O)O)cnc1C)CC1(CCOCC1)O2 (racemic) [Example 584, (R/S)-2,2-Dimethyl-3-(8-methyl-3-(trifluoromethyl)-[1,2,4]triazolo[4,3-a]pyridin-7-yl)-3-(6-methyl-5-((8′-methyl-1′,1′-dioxido-2,3,5,6-tetrahydrospiro[pyran-4,4′-pyrido[2,3-b][1,4,5]oxathiazepin]-2′(3′H)-yl)methyl)pyridin-3-yl)propanoic Acid]
- Kd [1]: < 1 nM
- EC50 [2]: 478 nM

Compound: Cc1ccc([C@H](c2ccn3c(C(F)(F)F)nnc3c2C)C(C)(C)C(=O)O)nc1CN1CC2(CCOCC2)Oc2ncccc2S1(=O)=O (single isomer, unassigned) [Example 39, (*R)-3-(6-((1′,1′-Dioxido-2,3,5,6-tetrahydrospiro[pyran-4,4′-pyrido[2,3-b][1,4,5]oxathiazepin]-2′(3′H)-yl)methyl)-5-methylpyridin-2-yl)-2,2-dimethyl-3-(8-methyl-3-(trifluoromethyl)-[1,2,4]triazolo[4,3-a]pyridin-7-yl)propanoic Acid]
- Kd [1]: 4250 nM
- EC50 [2]: 1260 nM

Compound: Cc1ccc([C@H](c2ccn3c(C(F)(F)F)nnc3c2C)C(C)(C)C(=O)O)nc1CN1CC2(CCOCC2)Oc2nc(OCCN3CCOCC3)ccc2S1(=O)=O (single isomer, unassigned) [Example 326, (*R)-2,2-Dimethyl-3-(8-methyl-3-(trifluoromethyl)-[1,2,4]triazolo[4,3-a]pyridin-7-yl)-3-(5-methyl-6-((7′-(2-morpholinoethoxy)-1′,1′-dioxido-2,3,5,6-tetrahydrospiro[pyran-4,4′-pyrido[2,3-b][1,4,5]oxathiazepin]-2′(3′H)-yl)methyl)pyridin-2-yl)propanoic Acid]
- Kd [1]: 3240 nM
- EC50 [2]: 4600 nM

Compound: Cc1cnc([C@H](c2ccn3c(C(F)(F)F)nnc3c2C)C(C)(C)C(=O)O)cc1CN1CC2(CCOCC2)Oc2ncccc2S1(=O)=O (single isomer, unassigned) [Example 57, (*R)-3-(4-((1′,1′-Dioxido-2,3,5,6-tetrahydrospiro[pyran-4,4′-pyrido[2,3-b][1,4,5]oxathiazepin]-2′(3′H)-yl)methyl)-5-methylpyridin-2-yl)-2,2-dimethyl-3-(8-methyl-3-(trifluoromethyl)-[1,2,4]triazolo[4,3-a]pyridin-7-yl)propanoic Acid]
- Kd [1]: 5670 nM
- EC50 [2]: 6660 nM

Compound: Cc1ccc([C@H](c2ccn3c(C(F)(F)F)nnc3c2C)C(C)(C)C(=O)O)cc1CN1CC2(CCOCC2)Oc2nc(OCCCOCCCO)ccc2S1(=O)=O (single isomer, unassigned) [Example 608, (*R)-3-(3-((7′-(3-(3-Hydroxypropoxy)propoxy)-1′,1′-dioxido-2,3,5,6-tetrahydrospiro[pyran-4,4′-pyrido[2,3-b][1,4,5]oxathiazepin]-2′(3′H)-yl)methyl)-4-methylphenyl)-2,2-dimethyl-3-(8-methyl-3-(trifluoromethyl)-[1,2,4]triazolo[4,3-a]pyridin-7-yl)propanoic Acid]
- Kd [1]: < 1 nM
- EC50 [2]: 9.12 nM

Compound: Cc1ccc([C@H](CC(=O)O)c2ccc3c(nnn3CC3CC3)c2C)cc1CN1C[C@H]2CCCCN2c2ncccc2S1(=O)=O (single isomer, unassigned) [Example 236, (*S)-3-(1-(Cyclopropylmethyl)-4-methyl-1H-benzo[d][1,2,3]triazol-5-yl)-3-(3-(((*R)-5,5-dioxido-7,7a,8,9,10,11-hexahydro-6H-dipyrido[2,1-d:2′,3′-f][1,2,5]thiadiazepin-6-yl)methyl)-4-methylphenyl)propanoic Acid]
- Kd [1]: < 1 nM
- EC50 [2]: 6.8 nM

Compound: CCn1nnc2c(C)c([C@H](CC(=O)O)c3ccc(C)c(CN4CC5(CC5)Oc5ncccc5S4(=O)=O)n3)ccc21 (single isomer, unassigned) [Example 244, (*S)-3-(6-((1′,1′-Dioxidospiro[cyclopropane-1,4′-pyrido[2,3-b][1,4,5]oxathiazepin]-2′(3′H)-yl)methyl)-5-methylpyridin-2-yl)-3-(1-ethyl-4-methyl-1H-benzo[d][1,2,3]triazol-5-yl)propanoic Acid]
- Kd [1]: < 1 nM
- EC50 [2]: 35 nM

Compound: Cc1ccc([C@@H](CC(=O)O)c2ccn3c(C(F)(F)F)nnc3c2C)cc1CN1CC2(CC2)N(C)c2ncccc2S1(=O)=O (single isomer, unassigned) [Example 185, (*R)-3-(4-Methyl-3-((5′-methyl-1′,1′-dioxido-5′H-spiro[cyclopropane-1,4′-pyrido[2,3-f][1,2,5]thiadiazepin]-2′(3′H)-yl)methyl)phenyl)-3-(8-methyl-3-(trifluoromethyl)-[1,2,4]triazolo[4,3-a]pyridin-7-yl)propanoic Acid]
- Kd [1]: 12 nM
- EC50 [2]: 2720 nM

Compound: Cc1ccc([C@@H](CC(=O)O)c2ccn3c(C(F)(F)F)nnc3c2C)cc1CN1C[C@H]2CCCN2c2ncccc2S1(=O)=O (single isomer, unassigned) [Example 390, (*R)-3-(3-(((R)-5,5-Dioxido-7a,8,9,10-tetrahydropyrido[2,3-f]pyrrolo[2,1-d][1,2,5]thiadiazepin-6(7H)-yl)methyl)-4-methylphenyl)-3-(8-methyl-3-(trifluoromethyl)-[1,2,4]triazolo[4,3-a]pyridin-7-yl)propanoic Acid]
- Kd [1]: < 1 nM
- EC50 [2]: 90.9 nM

Compound: Cc1ccc(C(CC(=O)O)c2ccn3c(C(F)F)nnc3c2C)cc1CN1C[C@H]2CCCN2c2ncccc2S1(=O)=O (mixture of isomers) [Example 449, 3-(3-(Difluoromethyl)-8-methyl-[1,2,4]triazolo[4,3-a]pyridin-7-yl)-3-(3-(((R)-5,5-dioxido-7a,8,9,10-tetrahydropyrido[2,3-f]pyrrolo[2,1-d][1,2,5]thiadiazepin-6(7H)-yl)methyl)-4-methylphenyl)propanoic Acid]
- Kd [1]: < 1 nM
- EC50 [2]: 47.6 nM

Compound: Cc1ccc([C@H](CC(=O)O)c2ccn3c(C(F)F)nnc3c2C)cc1CN1CC2(COC2)Oc2ccccc2S1(=O)=O (single isomer, unassigned) [Example 467, (*S)-3-(3-(Difluoromethyl)-8-methyl-[1,2,4]triazolo[4,3-a]pyridin-7-yl)-3-(3-((1,1-dioxidospiro[benzo[b][1,4,5]oxathiazepine-4,3′-oxetan]-2(3H)-yl)methyl)-4-methylphenyl)propanoic Acid]
- Kd [1]: < 1 nM
- EC50 [2]: 79.3 nM

Compound: Cc1ccc(C(CC(=O)O)c2ccc3c(nnn3CC3CC3)c2C)cc1CN1C[C@H]2CCCN2c2ncccc2S1(=O)=O (stereo partly drawn) [Example 400, 3-(1-(cyclopropylmethyl)-4-methyl-1H-benzo[d][1,2,3]triazol-5-yl)-3-(3-(((R)-5,5-dioxido-7a,8,9,10-tetrahydropyrido[2,3-f]pyrrolo[2,1-d][1,2,5]thiadiazepin-6(7H)-yl)methyl)-4-methylphenyl)propanoic acid]
- Kd [1]: < 1 nM
- EC50 [2]: 4.1 nM

Compound: Cc1cnc2c(c1)S(=O)(=O)N(Cc1nc([C@@H](c3ccn4c(C(F)(F)F)nnc4c3C)C(C)(C)C(=O)O)ccc1C)CC1(CNC1)O2 (single isomer, unassigned) [Example 630, (*S)-2,2-Dimethyl-3-(8-methyl-3-(trifluoromethyl)-[1,2,4]triazolo[4,3-a]pyridin-7-yl)-3-(5-methyl-6-((8′-methyl-1′,1′-dioxidospiro[azetidine-3,4′-pyrido[2,3-b][1,4,5]oxathiazepin]-2′(3′H)-yl)methyl)pyridin-2-yl)propanoic Acid]
- Kd [1]: 3.81 nM
- EC50 [2]: 81.8 nM

Compound: Cc1ccc([C@H](CC(=O)O)c2ccn3c(C(F)(F)F)nnc3c2C)cc1CN1CC2(COC2)Oc2ncccc2S1(=O)=O (single isomer, unassigned) [Example 260, (*S)-3-(3-((1′,1′-Dioxidospiro[oxetane-3,4′-pyrido[2,3-b][1,4,5]oxathiazepin]-2′(3′H)-yl)methyl)-4-methylphenyl)-3-(8-methyl-3-(trifluoromethyl)-[1,2,4]triazolo[4,3-a]pyridin-7-yl)propanoic Acid]
- Kd [1]: < 1 nM
- EC50 [2]: 101 nM

Compound: Cc1ccc(C(CC(=O)O)c2ccn3c(C(F)(F)F)nnc3c2C)nc1CN1CC2(COC2)Oc2ncccc2S1(=O)=O (stereo not drawn) [Example 493, 3-(6-((1′,1′-Dioxidospiro[oxetane-3,4′-pyrido[2,3-b][1,4,5]oxathiazepin]-2′(3′H)-yl)methyl)-5-methylpyridin-2-yl)-3-(8-methyl-3-(trifluoromethyl)-[1,2,4]triazolo[4,3-a]pyridin-7-yl)propanoic Acid]
- Kd [1]: < 1 nM
- EC50 [2]: 1230 nM

Compound: Cc1c([C@@H](CC(=O)O)c2ccc(Cl)c(CN3CC4(COC4)Oc4ncccc4S3(=O)=O)c2)ccn2c(C(F)(F)F)nnc12 (single isomer, unassigned) [Example 88, (*S)-3-(4-Chloro-3-((1′,1′-dioxoidospiro[oxetane-3,4′-pyrido[2,3-b][1,4,5]oxathiazepin]-2′(3′H)-yl)methyl)phenyl)-3-(8-methyl-3-(trifluoromethyl)-[1,2,4]triazolo[4,3-a]pyridine-7-yl)propanoic Acid]
- Kd [1]: 0.01 nM
- EC50 [2]: > 20000 nM

Compound: Cc1ccc(C(CC(=O)O)c2ccn3c(C(F)(F)F)nnc3c2C)nc1CN1CC2(CC2)Oc2ncc(F)cc2S1(=O)=O (stereo not drawn) [Example 508, 3-(6-((8′-Fluoro-1′,1′-dioxidospiro[cyclopropane-1,4′-pyrido[2,3-b][1,4,5]oxathiazepin]-2′(3′H)-yl)methyl)-5-methylpyridin-2-yl)-3-(8-methyl-3-(trifluoromethyl)-[1,2,4]triazolo[4,3-a]pyridin-7-yl)propanoic Acid]
- Kd [1]: < 1 nM
- EC50 [2]: 92.7 nM

Source: patent publication US10947252B2, “Inhibitors of KEAP1-Nrf2 protein-protein interaction” (Janssen Pharmaceutica NV, priority 2018, dated 2021)
